Values joined by “and” are separate entries in the source; they are usually repeats but may differ in a detail not shown here. Equal values may be shown once.
Columns and labels:
[1] = tested on: FcγRI-mediated degranulation; experiment: FcγRI-mediated degranulation (anti-human IgG Fab activation); type: cell-based; conditions: cells not primed with IgE, activated with rabbit anti-human IgG Fab fragment
[2] = Mouse Reverse Passive Arthus reaction (RPA reaction); type: in vivo, C57BL/6 mice; conditions: oral
Summary of the method: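 C57BL/6 mice dosed with compound before challenge, pretreatment time set by each compound's PK; rabbit anti-OVA IgG (50 μg/mouse) given intradermally, then ovalbumin 20 mg/kg i.v. with 1% Evans blue. Dorsal skin edema and hemorrhage read by dye extravasation at 4 h; purified polyclonal rabbit IgG as control.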

Primary T-cells [3] = experiment: Primary T-cell cytokine production (αCD3/αCD28): IL-4; type: cell-based, human; conditions: read-out: 1° T-Cell IL4 IC50
Description: (§1) 2E8-4E8 PBMC or proliferating T cells grown in rIL-2 from healthy human donors were suspended in PBS were spun down (1500 rpm, 8-10 minutes) and resuspended in 100 ml RPMI Complete media (1% Pen-Strep, 1% L-Glutamine, 10 mM HEPES). The cells were plated in T175 flasks (37° C., 5% CO2) and monocytes were allowed to adhere for 2-3 hours. After monocyte attachment, non-adherent cells were harvested, counted by hemocytometer, washed several times with PBS then resuspended in Yssels Complete Media (Modified IMDM Media with 1% Human AB Serum, 1% Pen-Strep, 1% L-Glutamine, 10 mM HEPES) at […]. 90 uL of the cell dilution were then added to compounds diluted to 2× in Yssel's media and incubated for 30 minutes at 37° C. (5% CO2). After this preincubation step the compound/cell mixture was transferred to stimulation plates, as described below.
(§2) Stimulation plates were prepared by coating 96 well plates with 5 μg/ml αCD3 (BD PharMingen, Catalog #555336)+10 μg/ml αCD28 (Beckman Coulter, Catalog #IM1376) in PBS (no Ca^2+/Mg^2+) at 37° C. (5% CO2) for at 3-5 hours. After incubation with the stimulation antibodies, the cocktail was removed and the plates washed 3 times with PBS prior to addition of the primary T cell/compound mixture.
(§3) The compound/cell mixture was transferred to the stimulation plates and incubated for 18 hr at 37° C. (5% CO2). After the cell stimulation, ˜150 μl supernatant were transferred from each well into 96-well filter plates (Coming PVDF Filter Plates) spun down (2000 rpm, 2-3 minutes) and either used immediately for ELISA or LUMINEX measurements or frozen down at −80° C. for future use.
(§4) Luminex immunoassay multiplexing for TNF, IL-2, GMSCF, IL-4 and IFNg was performed essentially as described by the manufacturer (Upstate Biotechnology). Essentially 50 uL of sample was diluted into 50 uL assay diluent and 50 uL incubation buffer, then incubated with 100 uL of the diluted detection antibody for 1 hr at RT in the dark. The filter plate was washed 2× in Wash Buffer, then incubated with 100 uL of the diluted secondary reagent (SAV-RPE) for 30 min at RT in the dark. Finally the plates were washed 3 times and bead identification and RPE fluorescent measured by the Luminex instrument.
(§5) Varied concentrations of compound were compared to solvent only to determine the inhibition of T-cell activation IC50 of each compound.

Primary T-cells [4] = experiment: Primary T-cell cytokine production (αCD3/αCD28): IFNg; type: cell-based, human; conditions: read-out: 1° T-Cell IFNg IC50
Description: as §1, §2, §3, §4, §5

[5] = tested on: IgE-induced degranulation of tissue mast cells; experiment: Mouse model of passive cutaneous anaphylaxis (PCA); type: in vivo; conditions: for % Inhibition: PO; for FcεR-mediated vascular leakage: increasing doses
Description: This model provides a direct measure of IgE-induced degranulation of tissue mast cells. In this model, IgE primed animals are exposed to an allergen challenge, and the change in permeability of dermal vasculature that results from histamine release from mast cells is measured by change in the amount of dye leakage into surrounding tissue. Inhibition of mediator release by compounds that modulate mast cell degranulation is easily measured by extracting the dye from the tissue.
In the PCA assay mice are passively sensitized by intradermal injection with anti-dinitrophenol (DNP) IgE antibodies (Day −1). At predetermined times animals are treated with the test agent (Day 0). The modulatory effect of the agent on cutaneous mast cell degranulation is measured following intravenous injection of DNP conjugated to human serum albumin (HSA-DNP), together with Evans blue dye. The resulting cross-linking of the IgE receptor and subsequent mast cell degranulation-induced increase in vascular permeability is determined by measuring the amount of dye extravasation into the tissue. Dye is extracted from the tissue by formamide, and the absorbance of this extract is read at 620 nm.

[6] = tested on: cultured human mast cells (CHMC); experiment: CHMC low cell density IgE activation: tryptase assay; type: cell-based; conditions: Low Density CHMC, anti-IgE activation, tryptase release; read-out: CHMC anti-IgE Tryptase IC50
Summary of the method: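 Cultured human mast cells (1000-1500 cells/well, donor-dependent) equilibrated 1 hr at 37° C, then stimulated with anti-IgE for 30 min at 37° C. Tryptase released into the supernatant is measured with a fluorogenic tryptase substrate after 30 min at room temperature.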

[7] = tested on: cultured human mast cells (CHMC); experiment: CHMC low cell density ionomycin activation: tryptase assay; type: cell-based; conditions: Low Density CHMC, ionomycin activation, tryptase release; read-out: CHMC Ionomycin Tryptase IC50
[8] = 100 mg/kg, pretreatment time 1 hrs

CNC(=O)COc1cccc(Nc2ncc(F)c(Nc3ccc(OC(F)(F)F)c(Cl)c3)n2)c1 [Compound R920410]
inhibition of FcγRI-mediated degranulation [1]: inhibit FcγRI-mediated degranulation | % inhibition to vehicle control Edema Size ± SEM [2, 8]: 42.6 ± 15.1% | IC50 (Primary T-cells [3]): 546 nM | IC50 (Primary T-cells [4]): 4310 nM

Oc1cccc(Nc2ncc(F)c(Nc3cccc(O)c3)n2)c1 [Compound R921218]
inhibition of FcγRI-mediated degranulation [1]: inhibit FcγRI-mediated degranulation | % Inhibition ([5]; 67% PEG/33% citrate buffer, pretreatment 10 min, 50 mg/kg): 7% | % Inhibition ([5]; 67% PEG/33% citrate buffer, pretreatment 10 min, 100 mg/kg): 11% | % Inhibition ([5]; 67% PEG/33% citrate buffer, pretreatment 10 min, 200 mg/kg): 50% | FcεR-mediated vascular leakage [5]: dose-dependent inhibition

CNC(=O)COc1cccc(Nc2ncc(F)c(Nc3ccc4c(c3)NCCO4)n2)c1 [Compound R921219]
% Inhibition ([5]; 1.5% Avicel/water, pretreatment 15 min, 30 mg/kg): 25% | % Inhibition ([5]; 1.5% Avicel/water, pretreatment 15 min, 100 mg/kg): 68% | % Inhibition ([5]; 1.5% Avicel/water, pretreatment 15 min, 300 mg/kg): 92% | circulating exposure levels at which active ([5]; dose level of 100 mg/kg): approximately 10 μg/m1 | FcεR-mediated vascular leakage [5]: dose-dependent inhibition

CNC(=O)COc1cccc(Nc2ncc(F)c(Nc3ccc4c(c3)NC(=O)C(F)(F)O4)n2)c1 [Compound R921303]
inhibition of FcγRI-mediated degranulation [1]: inhibit FcγRI-mediated degranulation | dose-dependent inhibition of edema formation ([2]; 50 mg/kg): 65.4% | % inhibition to vehicle control Edema Size ± SEM ([2]; 50 mg/kg, pretreatment time 1 hrs): 64.1 ± 13.3% and 65.4% | dose-dependent inhibition of edema formation ([2]; 100 mg/kg): 81.2% | % inhibition to vehicle control Edema Size ± SEM [2, 8]: 80.5 ± 9.8% and 81.2% | dose-dependent inhibition of edema formation ([2]; 200 mg/kg): 100% | inhibition of edema formation ([2]; 200 mg/kg, 60 minutes prior to challenge): 100% | % inhibition to vehicle control Edema Size ± SEM ([2]; 200 mg/kg, pretreatment time 0.5 hrs): 100 ± 0% | Plasma Concentration ± SEM (ng/ml) Exposure = Pretreatment Time + 4 hours ([2]; 200 mg/kg, pretreatment time 0.5 hrs + 4 hours): 3703 ± 785 ng/mL | inhibition of edema formation ([2]; 200 mg/kg, pretreatment time 30 minutes): 100% | % inhibition to vehicle control Edema Size ± SEM ([2]; 200 mg/kg, pretreatment time 1 hrs): 100 ± 0% and 100% | % inhibition to vehicle control Edema Size ± SEM ([2]; 200 mg/kg, pretreatment time 2 hrs): 93.3 ± 4.4% | Plasma Concentration ± SEM (ng/ml) Exposure = Pretreatment Time + 4 hours ([2]; 200 mg/kg, pretreatment time 2 hrs + 4 hours): 2678 ± 496 ng/mL | inhibition of edema formation ([2]; 200 mg/kg, pretreatment time 120 minutes): 93.6% | IC50 (Primary T-cells [3]): 366 nM | IC50 (Primary T-cells [4]): 1280 nM

CNC(=O)COc1cccc(Nc2ncc(F)c(Nc3ccc4c(n3)NC(=O)CO4)n2)c1 [Compound R921304]
IC50 (Primary T-cells [3]): 366 nM | IC50 (Primary T-cells [4]): 2890 nM

Fc1cnc(Nc2ccc3c(c2)OCCO3)nc1Nc1ccc2c(c1)OCCO2 [Compound R926109]
IC50 [6]: 538 nM | IC50 [7]: 5500 nM | % Inhibition ([5]; 67% PEG/33% citrate buffer, pretreatment 15 min, 50 mg/kg): 22% | % Inhibition ([5]; 67% PEG/33% citrate buffer, pretreatment 15 min, 100 mg/kg): 32% | % Inhibition ([5]; 67% PEG/33% citrate buffer, pretreatment 15 min, 200 mg/kg): 48% | FcεR-mediated vascular leakage [5]: dose-dependent inhibition

COc1ccc(Nc2ncc(F)c(Nc3ccc(OC)c(OC)c3)n2)cc1OC [Compound R926110]
IC50 [6]: 1070 nM | IC50 [7]: > 10000 nM

From US8158621B2, “Methods of treating or preventing autoimmune diseases with 2,4-pyrimidinediamine compounds” (Rigel Pharmaceuticals, Inc., priority 2002, dated 2012)
